Results from US20240148684A1, “COMPOUNDS AND METHODS FOR TREATING CONGENITAL ERYTHROPOIETIC PORPHYRIA” (RUTGERS, THE STATE UNIVERSITY OF NEW JERSEY, priority 2021, published 2024).

Tests used:
[1] = test system: uro-I injected zebrafish larvae; test: Zebrafish CEP model, prophylaxis protocol (retinoid co-administered with uro-I injection); assay type: in vivo, Zebrafish (Danio rerio); conditions: 24 hours, vs DMSO; for porphyrin fluorescence in bones (operculum and vertebrae): 10 μM in E3 medium
Procedure: Techniques that can be used to perform the methods of the invention are described by Elenbaas, J. S., et al., FASEB, 2016, 30, 1798-1810; and Cunha, J. B., Scientific Reports, 2021, 11, 9601.
Validation and characterization of acitretin as a potential treatment for CEP was performed. Six dpf ABTL zebrafish larvae injected with uro-I were immediately transferred to 10 cm plastic dishes containing 10 μM acitretin or DMSO in E3 medium (prophylaxis protocol FIG. 2A) and incubated for 24 hours in the dark at 28.5° C. Porphyrin binding to bones and bone volume were analyzed by confocal microscopy as described above. Porphyrin excretion into the medium was quantified. Uro-I-injected larvae were transferred to 96-well plates, one larva/well, […] of […] acitretin or DMSO/well. Medium was collected after 24 hours and porphyrin was quantified as described previously.
(§1) Etretinate (Selleck Chemicals, Houston, TX) and tretinoin (Selleck Chemicals, Houston, TX) treatment was performed as described for acitretin. In addition to being used as prophylaxis, the therapeutic effect of acitretin was evaluated. Six dpf AB×TL zebrafish larvae were injected with Uro-I and 24 hours later they were transferred to E3 medium containing […] acitretin or DMSO. Porphyrin binding, excretion and bone volume were analyzed. Saos-2 cells were treated with […] acitretin or DMSO in medium containing MAC and Uro-I.

[2] = test system: uro-I injected zebrafish larvae; test: High throughput drug screening (Prestwick library) in zebrafish CEP model; assay type: in vivo, Zebrafish (Danio rerio); conditions: 24 h, visual analysis vs DMSO-treated larvae, drug tested individually
Procedure: Unbiased high throughput drug screening was performed using the Prestwick library (Prestwick Chemical), which consists of 1,280 small molecules chosen by the manufacturer for their bioavailability and safety. […] Zebrafish E3 medium ([…]) was transferred to a 96-well half area imaging plate (Corning, cat. n. 3880) using a Multidrop dispenser (ThermoFisher Scientific). Compounds ([…] of 2 mM stock) were added to the wells using a multichannel plate handling robot (Biomek FX, Beckman Coulter Life Sciences). […] Control wells contained […] of DMSO.
Six dpf NHGRI-1 zebrafish larvae were injected retro-orbitally with approximately 2 nL of a solution of Uro-I (10 mM) and calcein (0.2% w/v). Immediately after injection, larvae were transferred to a 96-well test plate (two larvae in […] of E3 medium/well), including the DMSO control wells. Control larvae injected with the drug vehicle (dimethyl sulfoxide, DMSO) and calcein were transferred to E3 medium-only containing wells. Larvae were kept in the dark, at 28.5° C. After 24 h, they were anesthetized with tricaine-S, centrifuged at 500×g for two minutes and imaged using the ImageXpress Micro Cellular Imaging and Analysis System (Molecular Devices). Positive hits were selected based on visual identification of calcein signal increase and porphyrin signal decrease compared to DMSO-treated larvae. […]

Saos-2 cells [3] = assay type: cell-based, human
Procedure: (§2) Saos-2 cells were plated in 12-well plates (1.5×10^5 cells/well) and allowed to attach overnight. Cells were then treated with Uro-I ([…] final concentration) or vehicle in medium containing MAC for 3 days. Experiments were conducted in a dark room and cells were kept shielded from light in a tissue culture incubator.
as §1
Saos-2 cells RNA was extracted using RNeasy mini kit (Qiagen, Catalog #: 74104). and gene expression was carried using the RT^2 Profiler PCR Array for human cellular stress responses (Qiagen, Catalog #: PAHS-019ZA) following manufacturer's instructions. A previously described qPCR (Elenbaas, J. S. et al. Gastroenterology 154, 1625-1629 e1628, doi:10.1053/j.gastro.2018.01.024 (2018)) was performed for COL1A1 and SERPINH1 (IDT Integrated DNA Technologies, PrimeTime assay ID Hs.PT.58.15517795 and Hs.PT.56a.26865778, respectively).

Saos-2 cells [4] = test: Saos-2 immunoblotting of ER stress (BiP) and autophagy (LC3-II) markers; assay type: cell-based, human; conditions: acitretin with MAC and Uro-I, vs DMSO
Procedure: as §2, §1
Saos-2 cells were lysed in ice cold RIPA buffer (Sigma Aldrich, St. Louis, MO) with protease inhibitor cocktail (Thermo Scientific, Waltham, MA) and scraped. Whole cell lysate was kept in the dark until reducing SDS-PAGE sample buffer was added. Immunoblotting, band densitometry and mass spectrometry were conducted as described previously (Maitra, D. et al. Cell Mol Gastroenterol Hepatol 8, 659-682 e651, doi:10.1016/j.jcmgh.2019.05.010 (2019); and Maitra, D. et al. J Biol Chem 290, 23711-23724, doi:10.1074/jbc.M114.636001 (2015)). […]

zebrafish larvae [5] = test: Acitretin dose-response curve, toxicity to zebrafish larvae; assay type: in vivo, Zebrafish (Danio rerio); conditions: dose-response 0.5-12.5 mM
[6] = test system: uro-I injected zebrafish larvae; test: Zebrafish CEP model, therapeutic protocol (acitretin 24 hours after uro-I injection); assay type: in vivo, Zebrafish (Danio rerio); conditions: acitretin from 24 hours after uro-I, further 24 hours
Procedure: as §1

Saos-2 cells [7] = assay type: cell-based, human; remark: listed apart in the source
Procedure: Saos-2 cells were purchased from ATCC. Cells were maintained in McCoy 5A medium supplemented with 15% FBS, penicillin/streptomycin, non-essential amino acids, Hepes and L-glutamine. To induce mineralization, cells were treated with mineralization activation cocktail (MAC), consisting of 5 mM b-glycerophosphate, […] ascorbic acid and 10 nM dexamethasone. Uro-I solution preparation and treatment of zebrafish larvae and Saos-2 cells
as §2
Etretinate (Selleck Chemicals, Houston, TX) and tretinoin (Selleck Chemicals, Houston, TX) treatment was performed as described for acitretin. In addition to being used as prophylaxis, the therapeutic effect of acitretin was evaluated. […] Porphyrin binding, excretion and bone volume were analyzed. […]
Cell mineralization was quantified by ARS (Sigma Aldrich St. Louis, MO) staining as described previously (Harper, E. et al. PLoS One 12, e0188192, doi:10.1371/journal.pone.0188192 (2017)), with minor modifications. […] ARS standard curve (from 2-0.02 mM) and samples were transferred in triplicate to a 96-well plate and absorbance was measured at 405 nm.

zebrafish larvae [8] = conditions: in vivo
Procedure: Uro-I (uroporphyrin-I dihydrochloride; Frontier Scientific, Catalog #: U830-1) was initially resuspended in 0.1M NaOH and the pH was adjusted to neutral using 0.2 M Na2HPO4. Six days post fertilization (dpf), ABTL zebrafish larvae were injected via the retro-orbital route with approximately 3 nL of 7.2 mM Uro-I solution and control larvae were injected with vehicle (0.1M NaOH in 0.2M Na2HPO4). After injection, larvae were immediately transferred to Petri dishes wrapped with heavy duty aluminum foil and kept in a dark incubator, at 28.5° C., for 24 h. Where indicated, 7 dpf larvae were injected with approximately 2 nL of 0.2% w/v calcein (Sigma, Catalog #: C0875) 2 h prior to imaging.
Seven dpf AB×TL zebrafish larvae were anesthetized with tricaine-S (Syndel) and immobilized in 0.5% low melt agarose. Fluorescent z-series were captured using an Olympus FV500 confocal microscope (10× objective, confocal aperture of 300 mm) with an optical thickness of 10 mm and z-step size of 10 mm. Calcein was excited with a 488 nm argon laser and emission was captured between 505 and 525 nm. Porphyrin was excited with a 405 nm laser diode and emission was captured above 560 nm. Three-dimensional image reconstruction and quantification of fluorescent signal and bone volume were performed using Imaris 3D visualization and analysis software v7.7 (Bitplane).

[9] = acitretin in uro-I treated cells

SMILES: CC1=C(/C=C/C(C)=C/C=C/C(C)=C/C(=O)O)C(C)(C)CCC1 [tretinoin, all trans-retinoic acid]
- porphyrin fluorescence in bones (operculum and vertebrae) [1]: significantly reduced
- operculum volume (bone volume) [1]: did not prevent loss in bone volume

SMILES: COc1cc(C)c(/C=C/C(C)=C/C=C/C(C)=C/C(=O)O)c(C)c1C [acitretin]
- uro-I accumulation in bones (screening hit) [2]: decreased uro-I accumulation in bones
- porphyrin fluorescence in bones (operculum and vertebrae) [1]: significantly reduced
- operculum volume (bone volume) [1]: no effect
- uro-I excretion into the medium [1]: increased
- SOD3 downregulation (Saos-2 cells [3]; [9]): 3.8 fold
- Upregulation of COL1A1 (Saos-2 cells [3]; [9]): 1.7 ×
- Upregulation of SERPINH1 (Saos-2 cells [3]; [9]): 5.4 ×
- BiP level (ER stress response) (Saos-2 cells [4]): reducing BiP level
- LC3-II (autophagic flux) (Saos-2 cells [4]): reducing LC3-II
- toxicity to zebrafish larvae (zebrafish larvae [5]): without being toxic
- bone porphyrin fluorescence [6]: did not decrease
- operculum volume [6]: increased
- uro-I excretion to the medium [6]: increased
- uro-I-mediated loss of mineralization (ARS staining) (Saos-2 cells [7]; 10 mM acitretin in medium containing MAC and Uro-I): did not prevent

SMILES: Cl.Cl.O=C(O)CCC1=C(CC(=O)O)c2cc3nc(cc4[nH]c(cc5[nH]c(cc1n2)c(CC(=O)O)c5CCC(=O)O)c(CC(=O)O)c4CCC(=O)O)C(CC(=O)O)=C3CCC(=O)O [Uro-I, uroporphyrin-I dihydrochloride]
- operculum and 4th vertebra volume (zebrafish larvae [8]): significantly decreased
- HSPA5 expression increase (Saos-2 cells [3]): 2.1 ×
- SERPINH1 expression decrease (Saos-2 cells [3]): 3.3 ×
- SOD3 expression increase (Saos-2 cells [3]): 2.8 ×
- reduction in COL1A1 expression (Saos-2 cells [3]): 90%
- mineralization (ARS staining) (Saos-2 cells [7]): decreased significantly

SMILES: CCOC(=O)/C=C(C)/C=C/C=C(C)/C=C/c1c(C)cc(OC)c(C)c1C [etretinate]
- porphyrin fluorescence in bones (operculum and vertebrae) [1]: did not demonstrate significant activity
